These are literature values, as cited in patent US20020010202A1, “Combinations of prostaglandins and brimonidine or derivatives thereof” (Allergan Sales, Inc., priority 1994, published 2002).

For data set [1] the following is noted: pressure rise with microkeratomes in LASIK.
For data set [2] the following is noted: adjunctive to timolol in patients; statistically significant.
The conditions of data set [3]: in vivo.

SMILES strings stand for the structures.

`Brc1c(NC2=NCCN2)ccc2nccnc12` [Brimonidine]: the nerve fiber thinning result in data set [1] is given as “lessened or totally prevented”. For the same molecule, in data set [2], the IOP-lowering effect result was “about 20%”. For the same molecule, the “neuroprotection in the eye” value in data set [3] is “exhibited neuroprotective effects in the eye”.
`CCN[C@H]1C[C@H](C)S(=O)(=O)c2sc(S(N)(=O)=O)cc21` [MK 507]: under “in vivo”, the adverse effects entry is “blanching of the conjunctiva, minimal mydriasis and eyelid retraction”; the “duration of IOP decrease” value was at most 12 h. Also, for the setting “topically active carbonic anhydrase inhibitor”, the “mean decrease in IOP” value was 25%.
Take `CC(C)(C)NC[C@H](O)COc1nsnc1N1CCOCC1` [timolol, (S)-1-tert-Butylamino-3-[(4-morpholino-1,2,5-thiadiazol-3-yl)oxy]-2-propanol]: the “neuroprotection in the eye” value in data set [3] is given as “did not exhibit neuroprotection”.
